# Assay results as given in BindingDB's records for doi:10.1016/j.bmc.2018.07.019 (The Scripps Research Institute, 2018).
# Assay: Inhibition of ATG-Myc (unknown origin) expressed in CEF cells assessed as inhibition of microtumor formation
row,SMILES,IC50 [µM]
1,N#Cc1ccc(-c2cc(-c3ccc(C(=O)NN)cc3)cc(-c3ccco3)n2)cc1,> 100
2,N#Cc1ccc(-c2cc(-c3ccc(-c4nnn[nH]4)cc3)cc(-c3ccco3)n2)cc1,2
3,NC(=O)c1ccc(-c2cc(-c3ccc(-c4nccs4)cc3)nc(-c3ccco3)c2)cc1,5
4,N#Cc1ccc(-c2cc(-c3ccc(C(N)=O)cc3)cc(-c3cnco3)n2)cc1,5
5,N#Cc1ccc(-c2cc(-c3ccc(C(N)=O)cc3)cc(-c3ccco3)n2)cc1,3
6,NC(=O)c1ccc(-c2cc(-c3ccc(-c4cnco4)cc3)nc(-c3ccco3)c2)cc1,2.5
7,Cn1ccnc1-c1cc(-c2ccc(C(N)=O)cc2)cc(-c2ccc(C#N)cc2)n1,40
8,CS(=O)(=O)NC(=O)c1ccc(-c2cc(-c3ccc(C#N)cc3)nc(-c3ccco3)c2)cc1,10

# The remaining lines, values ahead:
row,IC50 [µM],SMILES
1,> 100,N#Cc1ccc(-c2cc(-c3ccc(C(N)=O)cc3)nc(-c3cc[n+]([O-])cc3)n2)cc1
2,> 100,c1coc(-c2cc(-c3nccs3)cc(-c3ccc(-c4nccs4)cc3)n2)c1
3,> 100,COc1ccc(-c2cc(-c3ccc(C(N)=O)cc3)nc(-c3ccccc3)n2)cc1
4,30,N#Cc1ccc(-c2cc(-c3ccc(C(N)=O)cc3)cc(-c3cncs3)n2)cc1
5,7,N#Cc1ccc(-c2cc(-c3ccc(C(N)=O)cc3)nc(-c3ccco3)n2)cc1
6,40,Cn1nncc1-c1cc(-c2ccc(C(N)=O)cc2)cc(-c2ccc(C#N)cc2)n1
7,> 100,N#Cc1ccc(-c2cc(-c3ccc(C(N)=O)cc3)cc(-c3cccc(F)c3)n2)cc1
